From US6800652B2, “Diaryl compounds” (Pfizer Inc., priority 2002, dated 2004)

Key:
Assay type in all cases: cell-based
[1] = biological target: T1, human serotonin transporter (hSERT) (Homo sapiens, UniProt P31645); experiment: Inhibition of 3H-serotonin uptake in HEK-293 cells stably transfected with hSERT; conditions: HEK-293 hSERT cells, 3H-5HT 50 nM, 5 min incubation, room temperature; read-out: SRI (serotonin re-uptake inhibition) IC50
T1 construct: expressed in transfected cells
Protocol: A number of compounds were tested for biological activity by their ability to inhibit the uptake of serotonin by human serotonin transporters as follows.
(§1) Human embryonic kidney cells (HEK-293) stably transfected with either the human serotonin transporter (hSERT), noradrenaline transporter (hNET) or dopamine transporter (hDAT) were cultured under standard cell culture techniques (cells were grown at 37° C. and 5% CO2 in DMEM-culture media (supplemented with 10% dialysed foetal calf serum (FCS), 2 mM I-glutamine and 250 μg/ml geneticin)). Cells were harvested for the assay to yield a cell suspension of 750,000 cells/ml.
(§2) All test compounds were dissolved in 100% DMSO and diluted down in assay buffer to give appropriate test concentrations. Assays were carried out in 96-well filter bottom plates. Cells (7500 cells/assay well) were pre-incubated in standard assay buffer containing either test compound, standard inhibitor or compound vehicle (1% DMSO) for 5 minutes. Reactions were started by addition of either ^3H-Serotonin, ^3H-Noradrenaline or ^3H-Dopamine substrates. All reactions were carried out at room temperature in a shaking incubator. […] The quantity of ^3H-substrate incorporated into the cells was then quantified.
(§3) Assay plates were dried in a microwave oven, scintillation fluid added, and radioactivity measured. […]

[2] = biological target: T2, dopamine transporter (hDAT) (Homo sapiens, UniProt Q01959); experiment: Inhibition of 3H-dopamine uptake in HEK-293 cells stably transfected with hDAT; conditions: HEK-293 hDAT cells, 3H-Dopamine 200 nM, 5 min incubation, room temperature; read-out: DRI (dopamine re-uptake inhibition) IC50
T2 construct: expressed in transfected cells
T2 sequence (Q01959 whole entry): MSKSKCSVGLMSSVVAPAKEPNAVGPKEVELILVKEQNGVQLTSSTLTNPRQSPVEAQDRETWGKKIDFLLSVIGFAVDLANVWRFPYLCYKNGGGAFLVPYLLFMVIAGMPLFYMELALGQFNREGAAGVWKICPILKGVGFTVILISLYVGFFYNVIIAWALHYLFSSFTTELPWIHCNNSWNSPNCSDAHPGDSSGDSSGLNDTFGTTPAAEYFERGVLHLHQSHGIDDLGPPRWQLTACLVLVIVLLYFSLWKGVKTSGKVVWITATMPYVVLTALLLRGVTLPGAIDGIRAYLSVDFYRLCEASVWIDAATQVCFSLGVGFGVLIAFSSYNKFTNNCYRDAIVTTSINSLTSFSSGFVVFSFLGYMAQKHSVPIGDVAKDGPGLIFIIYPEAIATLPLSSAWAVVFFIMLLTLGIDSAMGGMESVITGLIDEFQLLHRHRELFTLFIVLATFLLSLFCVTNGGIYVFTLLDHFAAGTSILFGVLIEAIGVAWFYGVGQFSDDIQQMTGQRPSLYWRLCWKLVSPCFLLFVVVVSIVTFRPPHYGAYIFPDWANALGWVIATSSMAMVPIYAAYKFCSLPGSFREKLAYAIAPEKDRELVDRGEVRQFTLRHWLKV
Protocol: as §1
as §2, with “incubator. Incubation times were 5 minutes for the hSERT and hDAT assays and 15 minutes for the hNET assay.” for “incubator.”
as §3

[3] = biological target: T3, noradrenaline transporter (hNET) (Homo sapiens, UniProt P23975); experiment: Inhibition of 3H-noradrenaline uptake in HEK-293 cells stably transfected with hNET; conditions: HEK-293 hNET cells, 3H-Noradrenaline 200 nM, 15 min incubation, room temperature; read-out: NRI (noradrenaline re-uptake inhibition) IC50
T3 construct: expressed in transfected cells
T3 sequence (P23975 whole entry): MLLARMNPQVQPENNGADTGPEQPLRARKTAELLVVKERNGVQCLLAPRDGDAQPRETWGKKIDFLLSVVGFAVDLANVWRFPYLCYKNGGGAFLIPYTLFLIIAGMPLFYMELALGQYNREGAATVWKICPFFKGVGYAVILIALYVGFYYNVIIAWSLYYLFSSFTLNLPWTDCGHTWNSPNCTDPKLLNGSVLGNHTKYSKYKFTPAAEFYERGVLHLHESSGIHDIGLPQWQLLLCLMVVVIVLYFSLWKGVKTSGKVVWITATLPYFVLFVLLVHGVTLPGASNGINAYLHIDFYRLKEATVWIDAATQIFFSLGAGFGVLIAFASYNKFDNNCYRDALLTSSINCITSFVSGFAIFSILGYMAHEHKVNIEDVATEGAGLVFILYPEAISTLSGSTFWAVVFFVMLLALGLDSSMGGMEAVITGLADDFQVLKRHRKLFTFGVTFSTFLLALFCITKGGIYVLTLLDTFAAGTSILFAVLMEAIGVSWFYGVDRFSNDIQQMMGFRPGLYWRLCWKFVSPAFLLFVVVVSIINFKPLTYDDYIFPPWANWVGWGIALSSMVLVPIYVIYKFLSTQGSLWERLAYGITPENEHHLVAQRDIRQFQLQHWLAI
Protocol: as §1
as §2, with “incubator. Incubation times were 5 minutes for the hSERT and hDAT assays and 15 minutes for the hNET assay.” for “incubator.”
as §3

T1 sequence (P31645 whole entry): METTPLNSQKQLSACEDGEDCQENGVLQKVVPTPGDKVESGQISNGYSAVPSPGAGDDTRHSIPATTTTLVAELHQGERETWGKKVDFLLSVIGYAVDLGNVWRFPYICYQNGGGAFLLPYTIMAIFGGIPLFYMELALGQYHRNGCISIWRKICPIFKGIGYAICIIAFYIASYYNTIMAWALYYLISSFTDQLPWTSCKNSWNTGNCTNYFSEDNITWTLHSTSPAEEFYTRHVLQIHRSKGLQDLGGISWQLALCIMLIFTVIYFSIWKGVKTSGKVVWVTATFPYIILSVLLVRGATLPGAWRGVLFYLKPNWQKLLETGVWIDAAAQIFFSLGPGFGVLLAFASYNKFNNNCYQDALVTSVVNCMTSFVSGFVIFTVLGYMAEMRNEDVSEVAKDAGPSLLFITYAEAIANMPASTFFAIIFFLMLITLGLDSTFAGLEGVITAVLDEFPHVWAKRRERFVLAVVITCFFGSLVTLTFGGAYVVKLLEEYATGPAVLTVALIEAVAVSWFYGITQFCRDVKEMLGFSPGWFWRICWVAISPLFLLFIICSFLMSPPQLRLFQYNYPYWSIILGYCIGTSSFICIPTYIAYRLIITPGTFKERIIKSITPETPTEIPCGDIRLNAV

IC50 [1]: 2.2 nM
IC50 [2]: 11700 nM
IC50 [3]: 564 nM
Structure (SMILES): CSc1ccc(Sc2ccncc2CN(C)C)cc1 [Example 2, N,N-Dimethyl-N-[(4-{[4-(methylsulfanyl)phenyl]sulfanyl}-3-pyridinyl)methyl]amine]
